The record followed here is ChEMBL document CHEMBL1201862, “PubChem BioAssay data set” (2004).

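In this assay, cells in 96-well plates receive the compound at five concentrations for 48 hours. Endpoints are linearly interpolated between the surrounding concentrations. GI50 marks 50% less growth.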 Calls of active or inactive are those of the source. Rule as the data show it: active = GI50 up to about 1.1 µM and inactive = higher.

Among the test systems are CCRF-CEM; HOP-62; OVCAR-5; HOP-92; IGROV-1; U-251; UO-31; OVCAR-8; SF-295; SW-620; HCT-116; K562; SK-MEL-28; HT-29; HL-60; SR; NCI-H460.
Assay in all cases: inhibition of tumour cell growth, NCI panel, 48 h

Regarding `Cn1cc2ccccc2c1-c1nc(F)nc(Oc2ccc3c(c2)CC[C@@H]2C3CC[C@]3(C)C(O)CCC23)n1` (stereo partly drawn), the GI50 was 5.78 µM (inactive) with CCRF-CEM; 16.7 µM (inactive) in the assay on HOP-62; 18.6 µM (inactive) in the assay with OVCAR-5; 18.4 µM (inactive) in the assay with HOP-92; 13.7 µM (inactive) in the assay with IGROV-1; 12 µM (inactive) with U-251. In addition, the GI50 was 21.7 µM (inactive) with UO-31; 17.4 µM (inactive) in the assay on OVCAR-8; 15.3 µM (inactive) with SF-295; 19.5 µM (inactive) with SW-620; 17.5 µM (inactive) in the assay with HCT-116; 29.2 µM (inactive) with K562. In addition, the GI50 with SK-MEL-28 was 16.3 µM (inactive).

With `O=C(CCC(=O)Nc1ccc(Cl)c(Cl)c1)Cc1nc2ccccc2o1`, the GI50 in the assay with CCRF-CEM, in the assay with HOP-62, in the assay on OVCAR-5, in the assay with HT-29, with HOP-92 and in the assay on HL-60 was > 100 µM (inactive) in each case. Also, the GI50 with IGROV-1, with U-251, with UO-31, in the assay with OVCAR-8, with SF-295 and with SW-620 was > 100 µM (inactive) each time. The GI50 with HCT-116, in the assay with SR, in the assay with K562, with SK-MEL-28 and in the assay with NCI-H460 was > 100 µM (inactive) in each case.

As for `COc1ccc(C2C(C(=O)O)=C(COC(C)=O)Oc3cc4c(cc32)OCO4)c(OC)c1` (stereo not drawn), the GI50 was > 100 µM (inactive) in the assay with CCRF-CEM; > 100 µM (inactive) in the assay with HOP-62; > 100 µM (inactive) with HT-29; 90.6 µM (inactive) in the assay with HOP-92; > 100 µM (inactive) in the assay with HL-60; > 100 µM (inactive) in the assay with IGROV-1. Besides, the GI50 in the assay on U-251, with UO-31, with OVCAR-8, with SF-295, in the assay on SW-620 and with HCT-116 was > 100 µM (inactive) throughout. Moreover, the GI50 in the assay on K562, in the assay with SK-MEL-28 and in the assay on NCI-H460 was > 100 µM (inactive) in each case.

Consider `CNC1=C(C)C(=O)C(C)=C(C(C)(C)CC(=O)n2cc(F)c(=O)[nH]c2=O)C1=O`, for which the GI50 in the assay with CCRF-CEM was > 65.3 µM (inactive); with HOP-62 it was 3.97 µM (inactive); in the assay with OVCAR-5, > 100 µM (inactive); with HT-29 it was 12.5 µM (inactive); with HOP-92, > 100 µM (inactive); with HL-60, 17.8 µM (inactive). Further, the GI50 in the assay on IGROV-1 is 67 µM (inactive); with U-251, > 75.9 µM (inactive); with UO-31, 24.3 µM (inactive); in the assay on OVCAR-8 it was 31.6 µM (inactive); with SF-295 it was > 67.9 µM (inactive); in the assay with SW-620, 39.9 µM (inactive). For the same molecule, the GI50 in the assay on HCT-116 was 8.2 µM (inactive); in the assay on K562, 32 µM (inactive); in the assay with SK-MEL-28, > 30.9 µM (inactive); with NCI-H460, 2.99 µM (inactive).

In the case of `O=C(O)[C@H](NS(=O)(=O)c1ccc([N+](=O)[O-])cc1)c1ccccc1`, the GI50 in the assay with CCRF-CEM, in the assay on HOP-62, in the assay with OVCAR-5, in the assay on HT-29, in the assay with HOP-92 and in the assay with IGROV-1 was > 100 µM (inactive) each time. In addition, the GI50 in the assay on U-251, in the assay on UO-31, in the assay on OVCAR-8, in the assay on SF-295, with SW-620 and in the assay on HCT-116 was > 100 µM (inactive) throughout. Moreover, the GI50 in the assay with K562, in the assay on SK-MEL-28 and with NCI-H460 was > 100 µM (inactive) throughout.

In the case of `C=CC[C@@]1(C#N)C[C@H](C[C@]2(C#N)C[C@H](CCl)OC(C)(C)O2)OC(C)(C)O1`, the GI50 was > 100 µM (inactive) in the assay with CCRF-CEM; > 100 µM (inactive) in the assay with HOP-62; > 100 µM (inactive) in the assay with OVCAR-5; > 100 µM (inactive) with HT-29; 51.9 µM (inactive) in the assay with HOP-92; 36 µM (inactive) with HL-60. The GI50 was > 100 µM (inactive) in the assay with IGROV-1; > 100 µM (inactive) in the assay with U-251; 43 µM (inactive) with UO-31; > 100 µM (inactive) in the assay with OVCAR-8; > 100 µM (inactive) with SF-295; > 100 µM (inactive) in the assay with SW-620. The GI50 with HCT-116 is 55.2 µM (inactive); in the assay on SR, 60.7 µM (inactive); in the assay on K562, 53 µM (inactive); with SK-MEL-28, > 100 µM (inactive); in the assay with NCI-H460, > 100 µM (inactive).

With `[O-][N+]1=C(c2ccccc2)COc2ccccc21`, the GI50 in the assay on CCRF-CEM is 85.1 µM (inactive); with HOP-62, > 100 µM (inactive); in the assay with OVCAR-5, > 100 µM (inactive); in the assay on HT-29 it was > 100 µM (inactive); in the assay with HOP-92, > 100 µM (inactive); in the assay with HL-60 it was > 100 µM (inactive). The GI50 in the assay with IGROV-1, in the assay on U-251, in the assay on UO-31, in the assay on OVCAR-8, with SF-295 and with SW-620 was > 100 µM (inactive) throughout. In addition, the GI50 is > 100 µM (inactive) in the assay with HCT-116; 47.5 µM (inactive) with SR; > 100 µM (inactive) in the assay on K562; > 100 µM (inactive) in the assay with SK-MEL-28; > 100 µM (inactive) in the assay on NCI-H460.

Take `COC(=O)C(=O)C(C(=O)C(=O)Nc1ccccc1C(N)=O)c1nc2ccc(C(=O)c3ccccc3)cc2nc1O` (stereo not drawn): the GI50 is > 100 µM (inactive) with CCRF-CEM; > 100 µM (inactive) with OVCAR-5; > 100 µM (inactive) with HT-29; > 100 µM (inactive) in the assay on IGROV-1; > 100 µM (inactive) with U-251; 58.6 µM (inactive) with UO-31. Further, the GI50 was > 100 µM (inactive) in the assay on OVCAR-8; > 100 µM (inactive) in the assay with SF-295; > 100 µM (inactive) in the assay on SW-620; > 100 µM (inactive) with HCT-116; 68.1 µM (inactive) in the assay on SR; 42.6 µM (inactive) in the assay on K562. In addition, the GI50 with SK-MEL-28 and in the assay on NCI-H460 was > 100 µM (inactive) throughout.

Turning to `COc1cc(C(Cc2ccccc2)NC(C)=O)oc(=O)c1` (stereo not drawn), the GI50 with CCRF-CEM, with HOP-62, in the assay with OVCAR-5, with HT-29, with HOP-92 and with HL-60 was > 100 µM (inactive) throughout. For the same molecule, the GI50 with IGROV-1, in the assay on U-251, with UO-31, in the assay on OVCAR-8, with SF-295 and in the assay on SW-620 was > 100 µM (inactive) each time. Besides, the GI50 with K562, with SK-MEL-28 and in the assay with NCI-H460 was > 100 µM (inactive) each time.

For the molecule `O=C1COc2cc3c(cc2N1)SCC(=O)N3`, the GI50 in the assay with CCRF-CEM, with HOP-62, with HT-29, with HOP-92, with HL-60 and in the assay on IGROV-1 was > 100 µM (inactive) each time. For the same molecule, the GI50 in the assay with UO-31, in the assay with OVCAR-8, in the assay with SF-295, with SW-620, with HCT-116 and with SR was > 100 µM (inactive) each time. For the same molecule, the GI50 with K562 and in the assay with SK-MEL-28 was > 100 µM (inactive) throughout.

As for `c1ccc(N2N=NC3C4CC(C5c6ccccc6C45)C32)cc1` (stereo not drawn), the GI50 with CCRF-CEM was 14 µM (inactive); with HOP-62, 64.4 µM (inactive); in the assay on OVCAR-5, 44.6 µM (inactive); with HT-29 it was 19.6 µM (inactive); in the assay on HOP-92, 19.1 µM (inactive); in the assay with HL-60, 19.1 µM (inactive). For the same molecule, the GI50 in the assay on IGROV-1 is 56.8 µM (inactive); in the assay with U-251 it was 32.5 µM (inactive); with UO-31 it was 28.2 µM (inactive); in the assay on OVCAR-8 it was 57.7 µM (inactive); in the assay on SF-295, 38.4 µM (inactive); with SW-620, 36.6 µM (inactive). Moreover, the GI50 in the assay on HCT-116 was 24.7 µM (inactive); in the assay with SR it was 20.2 µM (inactive); with K562, 36.1 µM (inactive); with NCI-H460, 40.6 µM (inactive).

For `Nc1ccc(C(=O)CC2(O)C(=O)Nc3c(Cl)cc(Cl)cc32)cc1` (stereo not drawn), the GI50 in the assay on CCRF-CEM is 16.4 µM (inactive); in the assay with HOP-62, > 100 µM (inactive); with OVCAR-5, > 100 µM (inactive); with HT-29, > 100 µM (inactive); in the assay on HOP-92, > 100 µM (inactive); with HL-60, 24.9 µM (inactive). The GI50 was 27.2 µM (inactive) in the assay on U-251; > 100 µM (inactive) in the assay with UO-31; > 100 µM (inactive) with OVCAR-8; > 100 µM (inactive) in the assay on SF-295; 25.5 µM (inactive) in the assay on SW-620; 66.7 µM (inactive) in the assay on HCT-116. In addition, the values for the GI50 in the assay with K562, in the assay with SK-MEL-28 and in the assay with NCI-H460 were 40.1 µM (inactive), > 100 µM (inactive) and > 100 µM (inactive), respectively.

With `COC(=O)/C=C/C(=O)C1C(C(=O)OC)C2(C(=O)OC)CCC1(C(=O)OC)N2` (stereo not drawn), the GI50 in the assay on HOP-62 was > 100 µM (inactive); with OVCAR-5, > 100 µM (inactive); in the assay with HT-29, > 100 µM (inactive); in the assay with HOP-92, < 0.01 µM (active); in the assay with HL-60 it was > 100 µM (inactive); in the assay on IGROV-1, > 100 µM (inactive). In addition, the GI50 in the assay with U-251, with UO-31, in the assay with OVCAR-8, in the assay on SF-295, in the assay with HCT-116 and in the assay on SR was > 100 µM (inactive) each time. The GI50 with K562 and in the assay with SK-MEL-28 was > 100 µM (inactive) throughout.
